The target in one series is T1, Human NPY5 receptor (Homo sapiens, UniProt Q15761).
T1 sequence (Q15761 1-445): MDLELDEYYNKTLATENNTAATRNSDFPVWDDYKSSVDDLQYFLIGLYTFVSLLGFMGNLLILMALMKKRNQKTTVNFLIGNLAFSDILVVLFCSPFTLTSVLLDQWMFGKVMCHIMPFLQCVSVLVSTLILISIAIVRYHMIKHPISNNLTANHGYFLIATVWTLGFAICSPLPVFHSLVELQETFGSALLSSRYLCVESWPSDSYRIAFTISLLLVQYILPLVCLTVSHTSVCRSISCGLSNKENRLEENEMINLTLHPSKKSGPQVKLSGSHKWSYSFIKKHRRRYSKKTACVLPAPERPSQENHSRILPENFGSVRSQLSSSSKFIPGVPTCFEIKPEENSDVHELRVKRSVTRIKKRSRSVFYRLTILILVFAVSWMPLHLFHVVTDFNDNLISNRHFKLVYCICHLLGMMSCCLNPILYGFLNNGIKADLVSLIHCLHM
Briefly: Human NPY5 receptor binding assay ([125I]PYY, membrane protein). The settings on record: [125I]PYY, read-out: hNPY5 IC50. In a few lines:
(§1)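 Compounds compete with porcine [125I]PYY (75-100 pM) for receptor sites on membrane protein over a 2 hour room-temperature incubation at pH 7.4. Unlabelled PYY at 1 μM defines nonspecific binding, and filter-retained radioactivity gives the read-out.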

The next series has as its target T2, Human NPY1 receptor (Homo sapiens, UniProt P25929).
T2 construct: host or cells: SK-N-MC cells
T2 sequence (P25929 1-384): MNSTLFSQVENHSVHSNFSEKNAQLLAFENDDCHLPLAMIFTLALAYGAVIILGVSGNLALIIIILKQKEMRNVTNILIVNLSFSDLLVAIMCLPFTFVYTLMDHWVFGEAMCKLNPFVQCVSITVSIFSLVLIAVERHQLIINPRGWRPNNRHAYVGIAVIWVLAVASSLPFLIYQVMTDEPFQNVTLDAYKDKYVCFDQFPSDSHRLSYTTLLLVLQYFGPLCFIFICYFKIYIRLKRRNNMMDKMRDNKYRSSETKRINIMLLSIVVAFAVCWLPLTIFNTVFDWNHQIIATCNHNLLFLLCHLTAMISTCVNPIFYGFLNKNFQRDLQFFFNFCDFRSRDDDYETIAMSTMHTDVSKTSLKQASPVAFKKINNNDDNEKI
Description: Human NPY1 receptor binding assay ([125I]PYY, SK-N-MC cells). Particulars: [125I]PYY, SK-N-MC cells; read-out: hNPYI IC50. Summed up: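 Whole-cell competition with ~50 pM [125I]PYY on SK-N-MC monolayers, 3 h at room temperature after 30 min preincubation in HEPES-buffered (pH 7.3) serum-free DMEM containing protease inhibitors. Gamma counting of cell lysates; 1 μM NPY gave nonspecific binding.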

The target of the next series is T3, Rat NPY5 receptor (Rattus norvegicus, UniProt Q63634).
T3 sequence (Q63634 1-445): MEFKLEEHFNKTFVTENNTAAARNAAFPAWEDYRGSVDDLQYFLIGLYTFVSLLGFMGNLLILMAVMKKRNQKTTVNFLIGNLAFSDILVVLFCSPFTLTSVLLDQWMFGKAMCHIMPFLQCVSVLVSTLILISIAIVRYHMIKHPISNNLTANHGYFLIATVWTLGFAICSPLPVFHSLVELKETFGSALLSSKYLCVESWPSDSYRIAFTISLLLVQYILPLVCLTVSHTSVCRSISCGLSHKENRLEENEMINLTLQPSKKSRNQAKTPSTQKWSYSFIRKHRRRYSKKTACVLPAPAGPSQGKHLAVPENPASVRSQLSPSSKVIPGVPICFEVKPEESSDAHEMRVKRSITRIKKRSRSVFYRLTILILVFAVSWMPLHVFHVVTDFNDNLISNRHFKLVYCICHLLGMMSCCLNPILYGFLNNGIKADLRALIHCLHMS
Description: Rat NPY5 receptor binding assay ([125I]PYY, membrane protein). Particulars: [125I]PYY, read-out: rNPY5 IC50. Summed up:
as §1

The next series has as its target human Y4/PP1 receptor (Homo sapiens, UniProt P50391). Briefly: Human Y4/PP1 receptor binding assay ([125I]human PP, membrane protein). Particulars: [125I]human PP, membrane protein; read-out: hNPY4 IC50. In a few lines:
(§2)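 Filtration binding with membrane protein and drug dilution, 2 h at room temperature with mixing, radioactivity counted by gamma or scintillation. Y2: 25 pM [125I]PYY in Krebs-Ringer bicarbonate pH 7.4 with 0.01% BSA, nonspecific by 1 μM NPY. Y4/PP1: 50 pM [125I]hPP in HEPES-buffered saline pH 7.4 with protease inhibitors and 0.3% BSA, nonspecific by 1 μM hPP.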

The next series addresses T4, Y2 receptor (Homo sapiens, UniProt P49146).
T4 sequence (P49146 1-381): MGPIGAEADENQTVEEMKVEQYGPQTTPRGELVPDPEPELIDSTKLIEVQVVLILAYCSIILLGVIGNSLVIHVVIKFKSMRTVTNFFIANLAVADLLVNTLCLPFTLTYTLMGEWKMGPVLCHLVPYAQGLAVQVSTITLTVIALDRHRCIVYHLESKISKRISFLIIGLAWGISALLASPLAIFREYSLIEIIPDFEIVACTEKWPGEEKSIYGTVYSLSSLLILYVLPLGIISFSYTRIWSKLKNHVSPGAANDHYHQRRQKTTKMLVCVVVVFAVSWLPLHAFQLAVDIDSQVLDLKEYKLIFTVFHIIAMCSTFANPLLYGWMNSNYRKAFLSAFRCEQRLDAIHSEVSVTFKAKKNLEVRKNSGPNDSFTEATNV
Description: Y2 receptor binding assay ([125I]PYY, membrane protein). Particulars: [125I]PYY, membrane protein; read-out: hNPY2 IC50. In a few lines:
as §2

Drawing on patent US6410792B1, “Amide derivatives and methods for using the same as selective neuropeptide Y receptor antagonists” (Bayer Corporation, priority 1997, dated 2002), this text covers IC50 and melting point for 14 compounds.

Molecules are shown by their SMILES.

Sequence of human Y4/PP1 receptor (P50391 whole entry): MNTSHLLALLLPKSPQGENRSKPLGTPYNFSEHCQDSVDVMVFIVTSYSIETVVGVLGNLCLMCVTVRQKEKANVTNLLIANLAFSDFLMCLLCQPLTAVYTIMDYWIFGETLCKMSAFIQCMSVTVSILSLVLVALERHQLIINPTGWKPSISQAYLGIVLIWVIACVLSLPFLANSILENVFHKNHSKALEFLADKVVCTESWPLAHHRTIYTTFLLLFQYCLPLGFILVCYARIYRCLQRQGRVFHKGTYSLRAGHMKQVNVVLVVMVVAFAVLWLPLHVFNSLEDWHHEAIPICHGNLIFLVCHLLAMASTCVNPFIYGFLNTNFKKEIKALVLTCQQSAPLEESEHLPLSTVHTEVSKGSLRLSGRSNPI

Consider `O=C(CNC(c1ccccc1)c1ccccc1)Nc1ccc(C2CCCCC2)cc1` [Compound 273, 2-(Benzhydryl-amino)-N-(4-cyclohexyl-phenyl)-acetamide], for which the melting point (usually the temperature of the solid-liquid transition) fell in the range of 132 to 133 °C. At Human NPY5 receptor, the IC50 (in general, the midpoint of a concentration-inhibition curve) turned out to be 7 µM. The IC50 on Human NPY1 receptor was above 5 µM. The IC50 at Rat NPY5 receptor was found to be 6.5 µM. Besides, the IC50 at human Y4/PP1 receptor is above 5 µM.
In the case of `COCCNC(=O)CN1CCC(n2c(=O)[nH]c3ccccc32)CC1` [Compound 284, N-(2-Methoxy-ethyl)-2-[4-(2-oxo-2,3-dihydro-benzoimidazol-1-yl)-piperidin-1-yl]-acetamide], the melting point lay in the range of 77 to 78 °C. In addition, the IC50 on Y2 receptor is above 5 µM. Also, the IC50 on Human NPY5 receptor is above 10 µM. Besides, the IC50 at Human NPY1 receptor is above 5 µM. The IC50 on Rat NPY5 receptor was above 10 µM. Moreover, at human Y4/PP1 receptor, the IC50 is above 5 µM.
The compound `CC(C)N(CCNC(=O)CN1CCC(n2c(=O)[nH]c3ccccc32)CC1)C(C)C` [Compound 281, N-(2-Diisopropylamino-ethyl)-2-[4-(2-oxo-2,3-dihydro-benzoimidazol-1-yl)-piperidin-1-yl]-acetamide] came in with a melting point of 195 to 196 °C. Further, the concentration for half-maximal inhibition (IC50) at Y2 receptor was above 5 µM. On Human NPY5 receptor, the IC50 is above 10 µM. For the same compound, on Human NPY1 receptor, the concentration for half-maximal inhibition (IC50) is above 5 µM. At Rat NPY5 receptor, the half-inhibitory concentration (IC50) was above 10 µM. The IC50 at human Y4/PP1 receptor was above 5 µM.
In turn, `O=C(CN1CCC(n2c(=O)[nH]c3ccccc32)CC1)Nc1ccc(C=Cc2ccccc2)cc1` [Compound 262, 2-[4-(2-Oxo-2,3-dihydro-benzoimidazol-1-yl)-piperidin-1-yl]-N-(4-styryl-phenyl)-acetamide] came in with a melting point of 234 to 235 °C. Also, the IC50 at Y2 receptor was above 5 µM. The IC50 at Human NPY5 receptor turned out to be 0.79 µM. Besides, on Human NPY1 receptor, the IC50 was above 5 µM. Also, the IC50 at human Y4/PP1 receptor is above 5 µM.
Regarding `CC(C)OCCCNC(=O)CN1CCC(n2c(=O)[nH]c3ccccc32)CC1.Cl` [Compound 283, N-(3-Isopropoxy-propyl)-2-[4-(2-oxo-2,3-dihydro-benzoimidazol-1-yl)-piperidin-1-yl]-acetamide; hydrochloride], the melting point is 237 to 238 °C. Further, the IC50 at Y2 receptor is above 5 µM. Further, the IC50 on Human NPY5 receptor was above 10 µM. Also, the IC50 at Human NPY1 receptor is above 5 µM. In addition, the IC50 at Rat NPY5 receptor was above 10 µM. Besides, the IC50 on human Y4/PP1 receptor was above 5 µM.
`CC(=O)NC1CCN(CC(=O)Nc2ccc(C3CCCCC3)cc2)C1.O=C(O)C(=O)O` (stereo not shown) [Compound 293, 2-(3-Acetylamino-pyrrolidin-1-yl)-N-(4-cyclohexyl-phenyl)-acetamide; compound with oxalic acid]: the melting point was determined as 122 °C. The IC50 at Y2 receptor is above 5 µM. On Human NPY5 receptor, the IC50 worked out at 0.19 µM. Further, the IC50 on Human NPY1 receptor is above 5 µM. Further, the IC50 at Rat NPY5 receptor was 0.17 µM. In addition, on human Y4/PP1 receptor, the IC50 was above 5 µM.
In turn, `O=C(CN1CCC(NC(=O)Nc2ccccc2)CC1)Nc1ccc(C2CCCCC2)cc1` [Compound 274, N-(4-Cyclohexyl-phenyl)-2-[4-(3-phenyl-ureido)-piperidin-1-yl]-acetamide] registered a melting point of 222 to 223 °C. At Human NPY5 receptor, the IC50 is 4.8 µM. The IC50 on Human NPY1 receptor is above 5 µM. Moreover, the IC50 on Rat NPY5 receptor came to 1.5 µM. Moreover, the IC50 at human Y4/PP1 receptor is above 5 µM.
As to `Cl.O=C(CN1CCC(n2c(=O)[nH]c3ccccc32)CC1)NCC1CCCCC1` [Compound 282, N-Cyclohexylmethyl-2-[4-(2-oxo-2,3-dihydro-benzoimidazol-1-yl)-piperidin-1-yl]-acetamide; hydrochloride], the melting point is 196 to 197 °C. In addition, the IC50 at Y2 receptor was above 5 µM. The IC50 on Human NPY5 receptor is 0.38 µM. In addition, on Human NPY1 receptor, the IC50 is above 5 µM. Further, on Rat NPY5 receptor, the IC50 came to 0.313 µM. Also, the IC50 on human Y4/PP1 receptor is above 5 µM.
In turn, `O=C(CN1CCC(n2c(=O)[nH]c3ccccc32)CC1)Nc1ccc(Cc2ccccc2)cc1` [Compound 258, N-(4-Benzyl-phenyl)-2-[4-(2-oxo-2,3-dihydro-benzoimidazol-1-yl)-piperidin-1-yl]-acetamide] had a melting point of 182 to 183 °C. In addition, the IC50 at Y2 receptor was above 5 µM. For the same compound, the IC50 on Human NPY5 receptor turned out to be 0.1 µM. Moreover, at Human NPY1 receptor, the IC50 is above 5 µM. Besides, the IC50 at human Y4/PP1 receptor was above 5 µM.
In turn, `O=C(CN1CCC2(CC1)C(=O)NCN2c1ccccc1)Nc1ccc(C2CCCCC2)cc1` [Compound 269, N-(4-Cyclohexyl-phenyl)-2-(4-oxo-1-phenyl-1,3,8-triaza-spiro[4.5]dec-8-yl)-acetamide] yielded a melting point of 117 to 118 °C. Moreover, the IC50 at Y2 receptor is above 5 µM. Further, the IC50 at Human NPY5 receptor was determined as 0.79 µM. In addition, the IC50 at Human NPY1 receptor is above 5 µM. For the same compound, at human Y4/PP1 receptor, the IC50 is above 5 µM.
Compound `Cl.O=C(CN1CCC(C(=O)c2ccc(F)cc2)CC1)Nc1ccc(C2CCCCC2)cc1` [Compound 292, N-(4-Cyclohexyl-phenyl)-2-[4-(4-fluoro-benzoyl)-piperidin-1-yl]-acetamide; hydrochloride] yielded a melting point of 258 °C. In addition, on Y2 receptor, the IC50 was above 5 µM. For the same compound, the IC50 on Human NPY5 receptor turned out to be 0.11 µM. For the same compound, the IC50 on Rat NPY5 receptor was 0.084 µM. Further, at human Y4/PP1 receptor, the IC50 is above 5 µM.
`CCOC(=O)Cc1ccc(NC(=O)CN2CCC(n3c(=O)[nH]c4ccccc43)CC2)cc1` [Compound 261, (4-{2 [4-(2-Oxo-2,3-dihydro-benzoimidazol-1-yl)-piperidin-1-yl]-acetylamino}-phenyl)-acetic acid ethyl ester]: the melting point fell in the range of 164 to 165 °C. The IC50 at Y2 receptor was above 5 µM. For the same compound, the IC50 at Human NPY5 receptor worked out at 0.59 µM. Further, the IC50 on Human NPY1 receptor was above 5 µM. The IC50 on human Y4/PP1 receptor is above 5 µM.
`CC(C)OC(=O)c1ccc(NC(=O)CN2CCC(n3c(=O)[nH]c4ccccc43)CC2)cc1` [Compound 260] came in with a melting point of 168 to 177 °C. The IC50 at Y2 receptor is above 5 µM. In addition, the IC50 at Human NPY5 receptor is 0.014 µM. Also, on Human NPY1 receptor, the IC50 was above 5 µM. The IC50 on human Y4/PP1 receptor was above 5 µM.
Compound `Cl.O=C(CN1CCC(n2c(=O)[nH]c3ccccc32)CC1)Nc1cccc2c1C(=O)c1ccccc1-2` [Compound 307, 2-[4-(2-Oxo-2,3-dihydro-benzoimidazol-1-yl)-piperidin-1-yl]-N-(9-oxo-9H-fluoren-1-yl)-acetamide; hydrochloride] registered a melting point of 204 °C. For the same compound, on Y2 receptor, the IC50 is above 5 µM. Also, at human Y4/PP1 receptor, the IC50 is above 5 µM.
